Data set [1] in a line: Time course of L-histidine concentration in blood after administration of different dipeptides (Test Example 4). It counts as in vivo, Wister male rats. As to the method:
7- to 8-week-old Wister male rats were divided into the following 3 administration groups.
1.00 g of L-alanyl-L-histidine (manufactured by Bachem) was dissolved in water for injection purpose to prepare 13.70 mL (total amount) of solution. This solution was subjected to sterilization filtration, and it was then poured into syringes (10 mL each per syringe), so as to produce a therapeutic agent for cerebral ischemic injury having a dosage form as an injection. The concentration of L-alanyl-L-histidine in this therapeutic agent for cerebral ischemic injury was 0.32 mol/L (L-histidine concentration: 5% (W/V)).
1.00 g of L-histidyl-L-glycine (manufactured by Bachem) was dissolved in water for injection purpose to prepare 14.60 mL (total amount) of solution. This solution was subjected to sterilization filtration, and it was then poured into syringes (10 mL each per syringe), so as to produce a therapeutic agent for cerebral ischemic injury having a dosage form as an injection. The concentration of L-histidyl-L-glycine in this therapeutic agent for cerebral ischemic injury was 0.32 mol/L (L-histidine concentration: 5% (W/V)).
1.00 g of L-histidyl-L-glutamic acid (manufactured by Bachem) was dissolved in water for injection purpose to prepare 10.90 mL (total amount) of solution. This solution was subjected to sterilization filtration, and it was then poured into syringes (10 mL each per syringe), so as to produce a therapeutic agent for cerebral ischemic injury having a dosage form as an injection. The concentration of L-histidyl-L-glutamic acid in this therapeutic agent for cerebral ischemic injury was 0.32 mol/L (L-histidine concentration: 5% (W/V)).

The test system of the next data set is Wistar male rats. Nature of the data set: Identification of side effects after intravenous administration (Test Example 2). The following applies: for Cessation of breathing, number of cases: 4 rats per group. As to the method:
(§1) 7- to 9-week-old Wistar male rats were divided into the following 8 administration groups. The number of rats in each group was set at 4. […]
L-histidine hydrochloride was dissolved in water for injection purpose, and the obtained solution was then adjusted to pH 6.0 with a sodium hydroxide aqueous solution. The obtained injection solution (L-histidine concentration: 10% (W/V)) was administered into the caudal vein of each rat at a rate of 60 mL/kg/hr for 10 minutes.
(§2) L-histidine was added to water for injection purpose, and acetic acid was further added thereto, so as to dissolve L-histidine in the solution. The obtained solution was adjusted to pH 6.0 with a sodium hydroxide aqueous solution. The obtained injection solution (L-histidine concentration: 10% (W/V)) was administered into the caudal vein of each rat at a rate of 60 mL/kg/hr for 10 minutes.
L-histidine was added to water for injection purpose, and citric acid was further added thereto, so as to dissolve L-histidine in the solution. The obtained solution was adjusted to pH 6.0 with a sodium hydroxide aqueous solution. The obtained injection solution (L-histidine concentration: 10% (W/V)) was administered into the caudal vein of each rat at a rate of 60 mL/kg/hr for 10 minutes.
β-alanyl-L-histidine was added to water for injection purpose, and the obtained solution was then adjusted to pH 7 with hydrochloric acid. The obtained injection solution (L-histidine concentration: 10% (W/V)) was administered into the caudal vein of each rat at a rate of 60 mL/kg/hr for 10 minutes. […]
(§3) After administration of the agent, blood was collected from each rat at regular time intervals, and the concentration of L-histidine (monomer) in blood was then measured using a high speed amino acid analyzer L-8800A (manufactured by Hitachi High-Technologies Corporation). […] In addition, the body temperature, blood pressure, and cardiac rate of each test animal were measured during the period from before administration of the agent until after the administration of the agent, and at the same time, the appearance of each test animal was observed, so as to examine the presence or absence of side effects caused by administration of the agent. The L-histidine concentration in blood was measured 15 minutes after the administration of the agent, and the presence or absence of side effects caused by such administration of the agent was examined.

Data set [2] in a line: L-histidine concentration in blood after intravenous administration (Test Example 2). The procedure: as §1
The therapeutic agent for cerebral ischemic injury obtained in Production Example 2 was diluted by a factor of 2, and the thus diluted solution was administered into the caudal vein of each rat at a rate of 60 mL/kg/hr for 10 minutes. […]
as §2
L-histidine was added to water for injection purpose, and citric acid was further added thereto, so as to dissolve L-histidine in the solution. The obtained solution was adjusted to pH 6.0 with a sodium hydroxide aqueous solution. The obtained injection solution (L-histidine concentration: 10% (W/V)) was administered into the caudal vein of each rat at a rate of 60 mL/kg/hr for 10 minutes. […]
as §3

Data set [3] is described as follows: Solubility in water at 25° C. It is filed as physicochemical.
Data set [4] relates to model of middle cerebral artery occlusion and subsequent reperfusion (cerebral ischemic injury). Nature of the data set: Infarction rate in model of middle cerebral artery occlusion and subsequent reperfusion (Test Example 1). It counts as in vivo, Wistar male rats. Particulars: for Infarction rate (mean value): 90 min occlusion, day after administration, control 49%. The source says:
Approximately 9-week-old Wistar male rats were used. The method of Koizumi et al. (Nou-socchu (Cerebral Apoplexy), Vol. 8, pp. 1-8, 1986) was applied to the rats under halothane anesthesia, so as to produce models of middle cerebral artery occlusion and subsequent reperfusion. Specifically, each rat was fixed under natural aspiration conditions under anesthesia with gas (initial anesthesia: performed in room air containing 3% halothane; continuous anesthesia: performed in room air containing 1% halothane), and the neck of the rat was then subjected to median incision. Subsequently, the left common carotid and external carotid artery was exfoliated from surrounding connective tissues, and it was then ligated with a ligature. After that, the internal carotid artery was exfoliated from surrounding connective tissues, and it was then ligated with a ligature. Further, using scissors, a hole was made on a site close to the branch point between the left external carotid artery and the internal carotid artery, and a silicon-coated portion of a nylon plug was then inserted into the internal carotid artery at a depth of 15 to 16 mm. Thereby, the tip of the inserted nylon plug exceeded the middle cerebral artery portion and reached the anterior cerebral artery, so that the inlet of the middle cerebral artery was occluded with the silicon-coated portion of the plug. […]
On the day after the administration of the agent, a test animal was anesthetized with ether, and the brain was then excised. […] A slice of brain section was placed, with a surface to be measured down, into each well of a 12-well plate, which had been filled with a 2% TTC solution prepared by dissolving 2,3,5-triphenyltetrazolium chloride (TTC) in a phosphate buffered saline. […] Thus, the area of an infarct on the measurement surface of each brain section (the site in which brain tissue was considered to be necrosed) was measured, and the obtained value was then multiplied by the thickness of the brain section, so as to obtain the volume of an infarct in each brain section. […]

The mark [5] stands for this setting: 5th administration group: dissolved with acetic acid, pH 6.0, L-histidine 10% (W/V), caudal vein 60 mL/kg/hr for 10 minutes.
Where [6] appears, read: 6th administration group: dissolved with citric acid, pH 6.0, L-histidine 10% (W/V), caudal vein 60 mL/kg/hr for 10 minutes.
[7] abbreviates: male, Wistar, rat, in vivo, 0 min.
Setting [8] is: male, Wistar, rat, in vivo, 15 min.
[9] abbreviates: male, Wistar, rat, in vivo, 30 min.
[10] abbreviates: male, Wistar, rat, in vivo, 60 min.
[11] abbreviates: male, Wistar, rat, in vivo, 120 min.
The mark [12] stands for this setting: male, Wistar, rat, in vivo, -10 min.

This is an account of results in patent US20100323975A1, “THERAPEUTIC AGENT FOR CEREBRAL ISCHEMIC INJURY” (OTSUKA PHARMACEUTICAL FACTORY, INC., priority 2007, published 2010).

Structures are written as SMILES. Entries after “also recorded” stand apart in the source; their conditions may differ. Peptide text beside a SMILES is read from it. A value given as a limit tells only on which side of the number the result lay.

Consider `N[C@@H](Cc1cnc[nH]1)C(=O)NCC(=O)O` [L-histidyl-L-glycine] (H-His-Gly-OH), for which the “L-histidine concentration in blood” value in data set [1] (0 min after administration, 0.32 mol/L, caudal vein 60 mL/kg/hr for 10 minutes) amounted to 3995.57 nmol/mL; in data set [1] (15 min after administration, 0.32 mol/L, caudal vein 60 mL/kg/hr for 10 minutes) it was 3798.87 nmol/mL; in data set [1] (30 min after administration, 0.32 mol/L, caudal vein 60 mL/kg/hr for 10 minutes), 2019.47 nmol/mL; in data set [1] (60 min after administration, 0.32 mol/L, caudal vein 60 mL/kg/hr for 10 minutes) it was 833.93 nmol/mL; in data set [1] (120 min after administration, 0.32 mol/L, caudal vein 60 mL/kg/hr for 10 minutes), 244.03 nmol/mL; in data set [1] (−10 min (before administration), 0.32 mol/L, caudal vein 60 mL/kg/hr for 10 minutes), 74.73 nmol/mL.
As to `N[C@@H](Cc1c[nH]cn1)C(=O)O` [L-histidine], the Side effects result in the data set with Wistar male rats (setting [5]) and in the data set with Wistar male rats (setting [6]) was “Decrease in blood pressure; also recorded: Cessation of breathing” each time. Besides, the “Cessation of breathing, number of cases” value was “administration of agent in 4 cases” with Wistar male rats (5th group (acetic acid, pH 6.0, 10% (W/V)): immediately after administration of agent) and “agent in 4 cases” in the data set with Wistar male rats (6th group (citric acid, pH 6.0, 10% (W/V)): during administration of agent). The “L-histidine concentration in blood (mean value)” value in data set [2] (setting [5]) and in data set [2] (setting [6]) was “Not be measurable” in each case.
For `N[C@@H](Cc1c[nH]cn1)C(=O)N[C@@H](CCC(=O)O)C(=O)O` [L-histidyl-L-glutamic acid] (H-His-Glu-OH), the “L-histidine concentration in blood” value is 1546.15 nmol/mL in data set [1] (setting [7]); 2090.10 nmol/mL in data set [1] (setting [8]); 1827.15 nmol/mL in data set [1] (setting [9]); 926.80 nmol/mL in data set [1] (setting [10]); 233.20 nmol/mL in data set [1] (setting [11]); 78.40 nmol/mL in data set [1] (setting [12]).
Consider `CC(=O)N[C@@H](Cc1c[nH]cn1)C(=O)O` [N-acetyl-L-histidine], for which the Side effects result in the data set on Wistar male rats (rat, in vivo, pH 7) is reported as “None”. In addition, the “L-histidine concentration in blood (mean value)” value in data set [2] (male, Wistar, rat, in vivo, 15 min, pH 7) is recorded as 0.25 mM.
Take `Cl.N[C@@H](Cc1c[nH]cn1)C(=O)O` [L-histidine hydrochloride]: in the data set on Wistar male rats (4th (pH 6.0) / 7th (pH 7) administration group: L-histidine concentration 10% (W/V), caudal vein 60 mL/kg/hr for 10 minutes, hydrochloride), the Side effects entry is given as “Decrease in blood pressure; also recorded: Cessation of breathing”. For the same compound, the “Cessation of breathing, number of cases” value with Wistar male rats (4th group: during administration of agent, 7th group: immediately after administration, L-histidine 10% (W/V)) is on record as “agent in 2 cases”.
Consider `NCCC(=O)N[C@@H](Cc1cnc[nH]1)C(=O)O` [β-alanyl-L-histidine], for which, in the data set on Wistar male rats (rat, in vivo), the Side effects entry is recorded as “Cessation of breathing”. For the same compound, the “L-histidine concentration in blood (mean value)” value in data set [2] (setting [8]) amounted to 0.30 mM.
Broadly, the solubility is how much of the substance goes into solution per volume. With `C[C@H](N)C(=O)N[C@@H](Cc1c[nH]cn1)C(=O)O` [L-alanyl-L-histidine] (H-Ala-His-OH), the solubility in data set [3] is not below 3500 mM. Also, the Side effects result with Wistar male rats (rat, in vivo) was “None”. The “Factor of increase of L-histidine concentration in blood when the concentration administered was increased by a factor of 2” value in data set [2] (setting [8]) is given as 3-3.5. Moreover, the “Cerebral ischemic injury during cerebral ischemia-reperfusion compared with control group and comparison group” value in data set [4] (Experiment group, Production Example 1 injection) was “remarkably suppressed”. The “Infarction rate (mean value)” value in data set [4] (Experiment group: Production Example 1 injection (1.29 mol/L), caudal vein 60 mL/kg/hr for 10 minutes, immediately after and 6 hours after reperfusion) is 20%. In addition, the “L-histidine concentration in blood” value in data set [1] (setting [7]) was 7588.27 nmol/mL; in data set [1] (setting [8]), 3802.80 nmol/mL; in data set [1] (setting [9]), 2198.93 nmol/mL; in data set [1] (setting [10]), 770.17 nmol/mL; in data set [1] (setting [11]) it was 268.77 nmol/mL; in data set [1] (setting [12]), 76.67 nmol/mL. For the same compound, in data set [1] (setting [7]), the “L-histidine concentration in blood immediately after completion of administration, relative to second administration group (L-histidyl-L-glycine)” value is listed as “approximately 2 times”. For the same compound, the “L-histidine concentration in blood immediately after completion of administration, relative to third administration group (L-histidyl-L-glutamic acid)” value in data set [1] (setting [7]) is on record as “approximately 5 times”.
Consider `CC1=NN(c2ccccc2)C(=O)C1` [Edaravone, 3-methyl-1-phenyl-2-pyrazoline-5-one], for which, in data set [4] (Comparison group: bolus injection 3 mg/kg immediately after and 30 minutes after reperfusion), the “Infarction rate (mean value)” value turned out to be 38%.
